Experimental data from PMC5789826, “Structure-guided design of an Hsp90β N-terminal isoform-selective inhibitor” (Nature Communications, 2018).
Values joined by “and” are separate entries in the source; they are usually repeats but may differ in a detail not shown here. Identical values can stand only once. Like-named read-outs stand apart in the source and are kept apart here.

Legend:
Hsp90β = Hsp90β (Homo sapiens, UniProt P08238); experiment: Fluorescence polarization assay (FITC-GDA tracer displacement), Hsp90β; type: binding; settings: for % Polarization to DMSO control: triplicate wells; for selectivity for Hsp90β: Hsp90β versus Hsp90α, from Kd values
Experimental: (§1) Compounds were tested in triplicate wells (1% DMSO final concentration). For each plate, wells containing buffer only (background), tracer in buffer only (low polarization control), and protein and tracer in buffer with 1% DMSO (high polarization control) were included. Plates were incubated at 4 °C with rocking for 24 h. […] Polarization values were correlated to % tracer bound and compound concentrations. The concentration at which the tracer was 50% displaced by the inhibitor was determined using Graphpad Prism.

Hsp90α = Hsp90α (Homo sapiens, UniProt P07900); experiment: Fluorescence polarization assay (FITC-GDA tracer displacement), Hsp90α; type: binding; settings: for % Polarization to DMSO control: triplicate wells
Experimental: as §1

[1] = fluorescence polarization, apparent Kd, read-out: Kd Hsp90β
[2] = fluorescence polarization, apparent Kd, read-out: Kd Hsp90α

Sequence of Hsp90β (P08238 whole entry): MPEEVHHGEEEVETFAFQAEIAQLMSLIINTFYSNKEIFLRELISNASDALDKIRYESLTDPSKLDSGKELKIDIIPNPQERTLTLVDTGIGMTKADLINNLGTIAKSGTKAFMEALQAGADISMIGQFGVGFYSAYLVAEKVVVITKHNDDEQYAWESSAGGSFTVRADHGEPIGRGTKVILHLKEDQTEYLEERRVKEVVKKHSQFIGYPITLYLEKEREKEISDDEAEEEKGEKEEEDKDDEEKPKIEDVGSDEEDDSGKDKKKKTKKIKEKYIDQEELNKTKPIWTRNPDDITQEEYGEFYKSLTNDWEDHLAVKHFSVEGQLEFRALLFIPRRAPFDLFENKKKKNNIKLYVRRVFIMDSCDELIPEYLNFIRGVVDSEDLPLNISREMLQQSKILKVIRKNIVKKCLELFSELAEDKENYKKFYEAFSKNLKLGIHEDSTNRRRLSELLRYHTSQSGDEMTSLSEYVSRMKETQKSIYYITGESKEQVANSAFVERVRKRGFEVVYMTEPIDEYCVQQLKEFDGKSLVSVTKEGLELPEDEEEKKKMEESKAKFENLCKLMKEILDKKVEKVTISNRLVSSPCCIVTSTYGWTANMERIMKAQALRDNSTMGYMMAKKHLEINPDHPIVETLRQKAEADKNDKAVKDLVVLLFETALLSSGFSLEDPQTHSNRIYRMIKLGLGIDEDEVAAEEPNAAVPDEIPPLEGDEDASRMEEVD

## CC(C)c1cc(C(=O)N2Cc3ccc(F)cc3C2)c(O)c2cnoc12 [Compound 6b]
Hsp90β; Hsp90β versus Hsp90α and Grp94
  selectivity over Hsp90α and Grp94: ~ 50 fold
Hsp90β; Suppl Table 13, 6b 0.125 μM
  % Polarization to DMSO control: 80.92% and 79.55% and 79.72%
Hsp90β; Suppl Table 13, 6b 0.5 μM
  % Polarization to DMSO control: 44.66% and 45.17%
Hsp90β; Suppl Table 13, 6b 1 μM
  % Polarization to DMSO control: 27.05% and 23.28% and 31.32%
Hsp90β; fluorescence polarization, apparent Kd, value in nM, read-out: Kd Hsp90β
  Kd: 180 nM
Hsp90β; [1]
  Kd: 440 nM
Hsp90α; Suppl Table 12, 6b 0.125 μM
  % Polarization to DMSO control: 101. 64% and 98.69% and 98.03%
Hsp90α; Suppl Table 12, 6b 0.5 μM
  % Polarization to DMSO control: 97.54% and 93.76% and 98.36%
Hsp90α; Suppl Table 12, 6b 1 μM
  % Polarization to DMSO control: 98.19% and 97.05% and 96.39%
Hsp90α; Suppl Table 12, 6b 3 μM
  % Polarization to DMSO control: 87.85% and 82.27% and 73.25%
Hsp90α; Suppl Table 12, 6b 10 μM
  % Polarization to DMSO control: 66.68% and 53.88% and 63.89%
Hsp90α; Suppl Table 12, 6b 25 μM
  % Polarization to DMSO control: 41.57% and 41.90% and 42.23%
Hsp90α; Suppl Table 12, 6b 75 μM
  % Polarization to DMSO control: 20.07% and 24.50% and 20.73%
Hsp90α; [2]
  Kd: 18200 nM

## COCc1cc(O)c(C(=O)N2Cc3ccccc3C2)cc1C(C)C [Compound 3]
Hsp90β
  Kd: > 25000 nM
Hsp90β; at 10 μM
  binding to Hsp90β: did not bind
Hsp90α
  Kd: > 25000 nM
Hsp90α; at 10 μM
  binding to Hsp90α: did not bind

## CC(C)c1cc(C(=O)N2Cc3ccccc3C2)c(O)cc1CC#N [Compound 2]
Hsp90β
  Kd: 970 nM
  selectivity for Hsp90β: ~ 2.5 fold
Hsp90β; Suppl Table 8, 2 0.1 μM
  % Polarization to DMSO control: 90.36% and 90.17% and 91.52%
Hsp90β; Suppl Table 8, 2 0.5 μM
  % Polarization to DMSO control: 65.62% and 68.90% and 70.45%
Hsp90β; Suppl Table 8, 2 1 μM
  % Polarization to DMSO control: 47.25% and 50.54% and 49.96%
Hsp90β; Suppl Table 8, 2 5 μM
  % Polarization to DMSO control: 12.84% and 16.90% and 23.47%
Hsp90β; Suppl Table 8, 2 10 μM
  % Polarization to DMSO control: 4.14% and 8.59% and 10.52%
Hsp90α
  Kd: 2280 ± 120 nM
Hsp90α; Suppl Table 9, 2 0.1 μM
  % Polarization to DMSO control: 95.62% and 98.23% and 93.53%
Hsp90α; Suppl Table 9, 2 0.5 μM
  % Polarization to DMSO control: 78.89% and 78.37% and 75.58%
Hsp90α; Suppl Table 9, 2 1 μM
  % Polarization to DMSO control: 66.18% and 68.79% and 67.22%
Hsp90α; Suppl Table 9, 2 5 μM
  % Polarization to DMSO control: 22.97% and 29.94%

## CC(C)c1ccc(O)c(C(=O)N2Cc3ccccc3C2)c1 [Compound 1]
Hsp90β
  selectivity for Hsp90β: ~ 2 fold
Hsp90β; Suppl Table 11, 1 0.5 μM
  % Polarization to DMSO control: 68.22% and 73.53% and 68.55%
Hsp90β; Suppl Table 11, 1 1 μM
  % Polarization to DMSO control: 60.93% and 62.75% and 64.41%
Hsp90β; Suppl Table 11, 1 5 μM
  % Polarization to DMSO control: 23.80% and 23.30% and 19.99%
Hsp90β; Suppl Table 11, 1 10 μM
  % Polarization to DMSO control: 15.34% and 18.00% and 10.37%
Hsp90β; Suppl Table 11, 1 25 μM
  % Polarization to DMSO control: 12.53% and 4.40% and 5.73%
Hsp90β; Suppl Table 11, 1 50 μM
  % Polarization to DMSO control: 5.73% and 5.90% and 4.40%
Hsp90β; Suppl Table 11, 1 100 μM
  % Polarization to DMSO control: 8.22% and 4.90% and 9.38%
Hsp90β; [1]
  Kd: 1630 nM
Hsp90α; Suppl Table 10, 1 0.5 μM
  % Polarization to DMSO control: 84.59% and 83.37% and 82.16%
Hsp90α; Suppl Table 10, 1 1 μM
  % Polarization to DMSO control: 70.63% and 71.84% and 71.69%
Hsp90α; Suppl Table 10, 1 5 μM
  % Polarization to DMSO control: 31.78% and 33.90% and 37.85%
Hsp90α; Suppl Table 10, 1 10 μM
  % Polarization to DMSO control: 22.83% and 17.67% and 25.25%
Hsp90α; Suppl Table 10, 1 25 μM
  % Polarization to DMSO control: 16.45% and 15.39% and 18.58%
Hsp90α; Suppl Table 10, 1 50 μM
  % Polarization to DMSO control: 11.45% and 12.05% and 8.56%
Hsp90α; Suppl Table 10, 1 100 μM
  % Polarization to DMSO control: 9.47% and 8.26%
Hsp90α; [2]
  Kd: 3210 nM

## CC(C)c1cc(C(=O)N2Cc3ccccc3C2)c(O)cc1C=O [Compound 4]
Hsp90α; Kd Hsp90α
  Kd: 1550 nM and 1220 nM

## CC(C)c1cc(C(=O)N2Cc3ccccc3C2)c(O)c(CO)c1O [Compound 5]
Hsp90β; Kd Hsp90β, fluorescence polarization, apparent Kd
  Kd: 4270 nM
Hsp90β; Suppl Table 5, 5 1 μM
  % Polarization to DMSO control: 73.89% and 76.47% and 73.55%
Hsp90β; Suppl Table 5, 5 5 μM
  % Polarization to DMSO control: 48.11% and 44.50% and 46.91%
Hsp90β; Suppl Table 5, 5 10 μM
  % Polarization to DMSO control: 27.82% and 30.40% and 31.26%
Hsp90β; Suppl Table 5, 5 25 μM
  % Polarization to DMSO control: 13.21% and 21.12% and 17.17%
Hsp90β; Suppl Table 5, 5 50 μM
  % Polarization to DMSO control: 21.98% and 21.29%
